According to patent US5698411A, “Method for determining activity of enzymes in metabolically active whole cells” (priority 1995, dated 1997):

Assays:
Format in all cases: cell-based, human
monocytes [1] = test: enzyme activity with fluorogenic substrate, normal monocytes (Table 3A)
granulocytes [2] = test: enzyme activity with fluorogenic substrate, normal granulocytes (Table 3A)
granulocytes [3] = test: aberrant enzyme activities in febrile children, granulocytes (Table 7)
monocytes [4] = test: aberrant enzyme activities in febrile children, monocytes (Table 7)
lymphocytes [5] = test: enzyme activity with fluorogenic substrate, normal lymphocytes (Table 3A)
erythrocytes = test: enzyme activity with fluorogenic substrate, normal erythrocytes (Table 3B)
lymphocytes [6] = test: aberrant enzyme activities in febrile children, lymphocytes (Table 7)

CC(=O)Oc1cc2c(cc1Cl)C(c1ccccc1C(=O)O)c1cc(Cl)c(OC(C)=O)cc1O2 [DCFH-DA MES, reference compound]
NORMAL LEUKOCYTE ENZYME ACTIVITY MONOS Mean (monocytes [1]): 12.28
NORMAL LEUKOCYTE ENZYME ACTIVITY GRANS Mean (granulocytes [2]): 7.49
aberrant enzyme activity, GRANS (granulocytes [3]; P88 Enteritis): .smallcircle.
aberrant enzyme activity, GRANS (granulocytes [3]; P89 Viral Stomatitis): + (>0.25 Increase over normal range)
aberrant enzyme activity, GRANS (granulocytes [3]; P92 Adenitis): + (>0.25 Increase over normal range)
aberrant enzyme activity, GRANS (granulocytes [3]; P95 Viral Syndrome): + (>0.25 Increase over normal range)
aberrant enzyme activity, GRANS (granulocytes [3]; P96 Viral Syndrome): + (>0.25 Increase over normal range)
aberrant enzyme activity, GRANS (granulocytes [3]; P97 Pyelonephritis): + (>0.25 Increase over normal range)
aberrant enzyme activity, GRANS (granulocytes [3]; P99 Viral Syndrome): .smallcircle.
aberrant enzyme activity, GRANS (granulocytes [3]; P101 Fever -- Unknown Origin): + (>0.25 Increase over normal range)
aberrant enzyme activity, GRANS (granulocytes [3]; P102 UTI): .smallcircle.
aberrant enzyme activity, GRANS (granulocytes [3]; P103 Viral Syndrome): + (>0.25 Increase over normal range)
aberrant enzyme activity, MONOS (monocytes [4]; P88 Enteritis): .smallcircle.
aberrant enzyme activity, MONOS (monocytes [4]; P89 Viral Stomatitis): + (>0.25 Increase over normal range)
aberrant enzyme activity, MONOS (monocytes [4]; P92 Adenitis): + (>0.25 Increase over normal range)
aberrant enzyme activity, MONOS (monocytes [4]; P95 Viral Syndrome): + (>0.25 Increase over normal range)
aberrant enzyme activity, MONOS (monocytes [4]; P96 Viral Syndrome): + (>0.25 Increase over normal range)
aberrant enzyme activity, MONOS (monocytes [4]; P97 Pyelonephritis): + (>0.25 Increase over normal range)
aberrant enzyme activity, MONOS (monocytes [4]; P99 Viral Syndrome): .smallcircle.
aberrant enzyme activity, MONOS (monocytes [4]; P101 Fever -- Unknown Origin): + (>0.25 Increase over normal range)
aberrant enzyme activity, MONOS (monocytes [4]; P102 UTI): .smallcircle.
aberrant enzyme activity, MONOS (monocytes [4]; P103 Viral Syndrome): + (>0.25 Increase over normal range)
NORMAL LEUKOCYTE ENZYME ACTIVITY LYMPHS Mean (lymphocytes [5]): 4.11
NORMAL E[…] ACTIVITY MEAN (erythrocytes): 0.286
aberrant enzyme activity, LYMPHS (lymphocytes [6]; P88 Enteritis): .smallcircle.
aberrant enzyme activity, LYMPHS (lymphocytes [6]; P89 Viral Stomatitis): + (>0.25 Increase over normal range)
aberrant enzyme activity, LYMPHS (lymphocytes [6]; P92 Adenitis): + (>0.25 Increase over normal range)
aberrant enzyme activity, LYMPHS (lymphocytes [6]; P95 Viral Syndrome): + (>0.25 Increase over normal range)
aberrant enzyme activity, LYMPHS (lymphocytes [6]; P96 Viral Syndrome): + (>0.25 Increase over normal range)
aberrant enzyme activity, LYMPHS (lymphocytes [6]; P97 Pyelonephritis): .smallcircle.
aberrant enzyme activity, LYMPHS (lymphocytes [6]; P99 Viral Syndrome): .smallcircle.
aberrant enzyme activity, LYMPHS (lymphocytes [6]; P101 Fever -- Unknown Origin): + (>0.25 Increase over normal range)
aberrant enzyme activity, LYMPHS (lymphocytes [6]; P102 UTI): .smallcircle.
aberrant enzyme activity, LYMPHS (lymphocytes [6]; P103 Viral Syndrome): + (>0.25 Increase over normal range)

O=C1OC2(c3ccc(OC4O[C@H](CO)[C@@H](O)[C@H](O)[C@H]4O)cc3Oc3cc(OC4O[C@H](CO)[C@@H](O)[C@H](O)[C@H]4O)ccc32)c2ccccc21 (stereo partly drawn) [DIGLUC (FL)]
NORMAL LEUKOCYTE ENZYME ACTIVITY GRANS Mean (granulocytes [2]): 0.45
NORMAL LEUKOCYTE ENZYME ACTIVITY LYMPHS Mean (lymphocytes [5]): 0.23
NORMAL E[…] ACTIVITY MEAN (erythrocytes): 0.110

CC(=O)Oc1ccc2c(c1)Oc1cc(OC(C)=O)ccc1C21OC(=O)c2ccccc21 [FDA, fluorescein diacetate, reference compound]
NORMAL LEUKOCYTE ENZYME ACTIVITY MONOS Mean (monocytes [1]): 66.25
aberrant enzyme activity, GRANS (granulocytes [3]; P88 Enteritis): .smallcircle.
aberrant enzyme activity, GRANS (granulocytes [3]; P99 Viral Syndrome): .smallcircle.
aberrant enzyme activity, GRANS (granulocytes [3]; P102 UTI): .smallcircle.
aberrant enzyme activity, MONOS (monocytes [4]; P88 Enteritis): .smallcircle.
aberrant enzyme activity, MONOS (monocytes [4]; P99 Viral Syndrome): .smallcircle.
aberrant enzyme activity, MONOS (monocytes [4]; P102 UTI): .smallcircle.
NORMAL LEUKOCYTE ENZYME ACTIVITY LYMPHS Mean (lymphocytes [5]): 13.38
NORMAL E[…] ACTIVITY MEAN (erythrocytes): 0.126
aberrant enzyme activity, LYMPHS (lymphocytes [6]; P88 Enteritis): .smallcircle.
aberrant enzyme activity, LYMPHS (lymphocytes [6]; P97 Pyelonephritis): .smallcircle.
aberrant enzyme activity, LYMPHS (lymphocytes [6]; P99 Viral Syndrome): .smallcircle.
aberrant enzyme activity, LYMPHS (lymphocytes [6]; P102 UTI): .smallcircle.

(Z-Thr--Pro)2 Rho 110 [Z-TP 8.7]
NORMAL LEUKOCYTE ENZYME ACTIVITY MONOS Mean (monocytes [1]): 76.00
NORMAL LEUKOCYTE ENZYME ACTIVITY GRANS Mean (granulocytes [2]): 82.35
aberrant enzyme activity, GRANS (granulocytes [3]; P92 Adenitis): .smallcircle.
aberrant enzyme activity, GRANS (granulocytes [3]; P97 Pyelonephritis): .smallcircle.
aberrant enzyme activity, GRANS (granulocytes [3]; P103 Viral Syndrome): .smallcircle.
aberrant enzyme activity, MONOS (monocytes [4]; P92 Adenitis): - (>0.25 Decrease over normal range)
aberrant enzyme activity, MONOS (monocytes [4]; P97 Pyelonephritis): .smallcircle.
aberrant enzyme activity, MONOS (monocytes [4]; P103 Viral Syndrome): .smallcircle.
NORMAL LEUKOCYTE ENZYME ACTIVITY LYMPHS Mean (lymphocytes [5]): 35.01
NORMAL E[…] ACTIVITY MEAN (erythrocytes): 0.161
aberrant enzyme activity, LYMPHS (lymphocytes [6]; P92 Adenitis): - (>0.25 Decrease over normal range)
aberrant enzyme activity, LYMPHS (lymphocytes [6]; P97 Pyelonephritis): .smallcircle.
aberrant enzyme activity, LYMPHS (lymphocytes [6]; P103 Viral Syndrome): .smallcircle.
